Data set [1] concerns the target T1, recombinant human FAMIN (Homo sapiens, UniProt Q8IV20).
T1 construct: twin Strep-tag (followed by short linker and TEV cleavage site) (N, cleaved yes); made in house; host or cells: HEK293T
T1 sequence (Q8IV20 1-430): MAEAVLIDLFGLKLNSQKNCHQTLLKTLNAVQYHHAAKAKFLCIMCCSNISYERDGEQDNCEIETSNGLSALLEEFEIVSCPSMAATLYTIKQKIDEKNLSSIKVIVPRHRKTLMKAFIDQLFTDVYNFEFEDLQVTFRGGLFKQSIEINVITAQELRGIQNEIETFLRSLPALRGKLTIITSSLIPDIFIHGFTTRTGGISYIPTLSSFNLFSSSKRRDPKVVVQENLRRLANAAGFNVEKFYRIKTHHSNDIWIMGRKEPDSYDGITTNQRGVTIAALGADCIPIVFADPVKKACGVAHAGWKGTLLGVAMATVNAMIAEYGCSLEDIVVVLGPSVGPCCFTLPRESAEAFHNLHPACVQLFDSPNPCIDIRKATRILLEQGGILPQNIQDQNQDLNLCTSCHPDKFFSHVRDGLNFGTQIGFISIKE
As to the kind of experiment: specificity of FAMIN activity towards purine and pyrimidine nucleosides (substrate consumption, LC-MS). It is filed as biochemical. Particulars: pure substrate with 10 μg recombinant FAMIN in 100 μl PBS, pH 7.4, 1 h at 37° C. (FIG. 2A, 2N, 2R, 2S). An excerpt:
Peak intensity of each extracted chromatogram per given m/z value normalised to maximum level of 100. Controls as indicated include reaction buffer (PBS), protein elution buffer as described in methods, recombinant FAMIN without substrate or protein buffer with adenosine substrate. […] FIGS. 2C, 2D, 2E, and 2F show representative chromatograms and mass spectra for (2C) adenine, (2D) hypoxanthine, (2E) inosine and (2F) ribose-1-phosphate. Upper panels: (2C-E) extracted positive ion chromatogram showing injection of (2C) 1 μM standard of adenine; (2D) 5 μM standard of hypoxanthine; (2E) 5 μM standard of inosine on a BEH C8 column; (2F) extracted negative ion chromatogram showing injection of a 5 μg/mL standard of ribose-1-phosphate on a BEH amide HILIC column. All measurements performed using the Q Exactive Orbitrap and extracted at m/z values of (2C) adenine [M+H]^+: 136.0617, (2D) hypoxanthine [M+H]^+: 137.0457, (2E) inosine [M+H]^+: 269.0877 and (2F) ribose-1-phosphate [M−H]^−: 229.0119 at a tolerance of 2 ppm. Middle panels: Corresponding extracted chromatograms of a representative sample (10 μg recombinant FAMIN^254I incubated with 10 μM adenosine for 1 h in 100 μl phosphate-buffered saline). Peaks at indicated retention times perfectly match those of adenine, hypoxanthine, inosine and ribose-1-phosphate standards. Lower panels: high resolution Fourier transform mass spectrometry (FTMS) mass spectrum of the representative FAMIN^254I incubated sample during the peaks putatively identified as (2C) adenine, (2D) hypoxanthine, (2E) inosine, or (2F) ribose-1-phosphate. Nominal m/z values of (2C) 136, (2D) 137, (2E) 269 and (2F) 229, respectively, were selectively targeted and fragmented using a higher-energy collision dissociation (HCD) collision voltage of 25 eV to give the fragments shown. […] Calculated from absolute levels of hypoxanthine and inosine quantified using ^13C2, ^15N1-hypoxanthine and ^15N4-inosine internal standards, and adenine levels estimated using adenine external standard. […] (SAM; S-adenosylmethionine; MTA, S-methyl-5′-thioadenosine; 2′-dA, 2′-deoxyadenosine; n=3, mean±S.E.M.). […] FIGS. 2P and 2Q show on the left FAMIN catalysed enzymatic reactions. On the right they show levels of guanine or hypoxanthine and ribose-1-phosphate in reactions containing 100 μM guanosine or inosine and recombinant FAMIN or buffer control in 100 μl after 1 h at 37° C. (n=3, mean±S.E.M.). […] On the lower panels adenine, 2′-deoxyinosine, hypoxanthine and deoxyribose-1-phosphate levels following incubation of 10 μg recombinant FAMIN or buffer control with 10 μM 2′deoxyadenosine for 1 h in 100 μl PBS (n=3 each, mean±S.E.M.). […] All metabolite level data in this figure measured as area under the chromatographic peak, normalised for total ion content. *P<0.05 (unpaired, two-tailed Student's t-test).
Putative enzymatic function of recombinant human strep-tagged FAMIN was investigated against aqueous HepG2 metabolite extracts (dried, Folch extracted from 5×10^6 cells) or nucleoside substrates at indicated concentrations and detected using HPLC-MS as described above. Unless otherwise indicated in the figure legends, HEK293T cell-expressed protein was used for all assays. The reaction mixture (final volume 100 μL) consisted of 10 μg of recombinant protein and 10 μM nucleoside substrate in Dulbecco's PBS (Thermo Fisher), pH 7.4 unless otherwise indicated. The samples were incubated at 37° C. for 1 h and then quenched with ×5 volume of ice-cold methanol. Samples were centrifuged at 21,000 g for 5 min transferred to fresh tubes and then dried down prior to analysis as described above.

In data set [2] the target is T1, recombinant human FAMIN. As to the kind of experiment: adenosine deaminase activity of FAMIN (adenosine to inosine, LC-MS). It is filed as biochemical. The settings on record: 10 μg recombinant FAMIN, 10 μM adenosine in PBS, 1 h at 37° C. (FIG. 5A).
Data set [3] addresses T1, recombinant human FAMIN. As to the kind of experiment: adenosine phosphorylase activity of FAMIN (adenosine to adenine and ribose-1-phosphate, LC-MS). Format: biochemical. The settings on record: 10 μg recombinant FAMIN, 10 μM adenosine in PBS, 1 h at 37° C. (FIG. 5B, 5C). The method, then:
(§1) FIGS. 5B and 5C show levels of adenine and ribose-1-phosphate ([…]) in the reaction described in FIG. 5A. […] For enzyme kinetic assays a further chromatographic approach was used to allow for analysis of all substrates and products using a single assay. A Waters BEH C8 column was used (100×2.1 mm, 1.7 μm) with a weak mobile phase (A) of aqueous 10 mM ammonium acetate with 0.1% ammonia and a strong mobile phase (B) of acetonitrile. For gradient elution mobile phase B was held at 0% for 1.6 min, followed by a linear gradient to 30% B over 4.0 minutes, a further increase to 90% over 1 min, and a hold at 90% B for 1 min, with re-equilibration for 1.5 minutes giving a total run time of 6.5 minutes. The flow rate was 0.5 mL/min and the injection volume was 2 μL. The needle wash used was 4:1 water:acetonitrile. Putative enzymatic function of recombinant human strep-tagged FAMIN was investigated against aqueous HepG2 metabolite extracts (dried, Folch extracted from 5×10^6 cells) or nucleoside substrates at indicated concentrations and detected using HPLC-MS as described above. Unless otherwise indicated in the figure legends, HEK293T cell-expressed protein was used for all assays. The reaction mixture (final volume 100 μL) consisted of 10 μg of recombinant protein and 10 μM nucleoside substrate in Dulbecco's PBS (Thermo Fisher), pH 7.4 unless otherwise indicated. The samples were incubated at 37° C. for 1 h and then quenched with ×5 volume of ice-cold methanol. Samples were centrifuged at 21,000 g for 5 min transferred to fresh tubes and then dried down prior to analysis as described above.

For data set [4], the target named is T1, recombinant human FAMIN. As to the kind of experiment: purine nucleoside phosphorylase activity of FAMIN (inosine to hypoxanthine and ribose-1-phosphate, LC-MS). Format: biochemical. Particulars: 10 μg recombinant FAMIN, 10 μM inosine in PBS, 1 h at 37° C. (FIG. 5D, 5E). The protocol: as §1, with “The samples were incubated at 37° C. for 1 h and then quenched with ×5 volume of ice-cold methanol. Samples were centrifuged at 21,000 g for 5 min transferred to fresh tubes and then dried down prior to analysis as described above.” left out

Substrate in data set [5]: CSC[C@H]1O[C@@H](n2cnc3c(N)ncnc32)[C@H](O)[C@@H]1O
As to the kind of experiment: S-methyl-5'-thioadenosine phosphorylase activity of FAMIN (MTA to adenine, LC-MS). Format: biochemical, human. The settings on record: other: 500 nM to 100 μM MTA, adenine production, 1 h at 37° C., pH 7.4 (FIG. 3A). The method, then:
Activity measured as inosine, hypoxanthine and adenine production following incubation with protein for 1 h at 37° C. at pH 7.4.
For enzyme kinetic assays a further chromatographic approach was used to allow for analysis of all substrates and products using a single assay. A Waters BEH C8 column was used (100×2.1 mm, 1.7 μm) with a weak mobile phase (A) of aqueous 10 mM ammonium acetate with 0.1% ammonia and a strong mobile phase (B) of acetonitrile. For gradient elution mobile phase B was held at 0% for 1.6 min, followed by a linear gradient to 30% B over 4.0 minutes, a further increase to 90% over 1 min, and a hold at 90% B for 1 min, with re-equilibration for 1.5 minutes giving a total run time of 6.5 minutes. The flow rate was 0.5 mL/min and the injection volume was 2 μL. The needle wash used was 4:1 water:acetonitrile.
Putative enzymatic function of recombinant human strep-tagged FAMIN was investigated against aqueous HepG2 metabolite extracts (dried, Folch extracted from 5×10^6 cells) or nucleoside substrates at indicated concentrations and detected using HPLC-MS as described above. Unless otherwise indicated in the figure legends, HEK293T cell-expressed protein was used for all assays. The reaction mixture (final volume 100 μL) consisted of 10 μg of recombinant protein and 10 μM nucleoside substrate in Dulbecco's PBS (Thermo Fisher), pH 7.4 unless otherwise indicated. […]

Substrate in data set [6]: Nc1ncnc2c1ncn2[C@@H]1O[C@H](CO)[C@@H](O)[C@H]1O
As to the kind of experiment: adenosine deaminase activity of FAMIN (adenosine to inosine, LC-MS). It is filed as biochemical, human. The settings on record: other: 500 nM to 100 μM adenosine, inosine production, 1 h at 37° C., pH 7.4 (FIG. 3A).

Substrate in data set [7]: Nc1ncnc2c1ncn2[C@@H]1O[C@H](CO)[C@@H](O)[C@H]1O
As to the kind of experiment: adenosine phosphorylase activity of FAMIN (adenosine to adenine and ribose-1-phosphate, LC-MS). The settings on record: other: 500 nM to 100 μM adenosine, adenine production, 1 h at 37° C., pH 7.4 (FIG. 3A). Format: biochemical, human. The protocol:
as §1, with “The samples were incubated at 37° C. for 1 h and then quenched with ×5 volume of ice-cold methanol. Samples were centrifuged at 21,000 g for 5 min transferred to fresh tubes and then dried down prior to analysis as described above.” left out

Substrate in data set [8]: OC[C@H]1O[C@@H](n2cnc3c(O)ncnc32)[C@H](O)[C@@H]1O
As to the kind of experiment: purine nucleoside phosphorylase activity of FAMIN (inosine to hypoxanthine and ribose-1-phosphate, LC-MS). Format: biochemical, human. The settings on record: other: 500 nM to 100 μM inosine, hypoxanthine production, 1 h at 37° C., pH 7.4 (FIG. 3A). The method, then: as §1, with “The samples were incubated at 37° C. for 1 h and then quenched with ×5 volume of ice-cold methanol. Samples were centrifuged at 21,000 g for 5 min transferred to fresh tubes and then dried down prior to analysis as described above.” left out

The text below walks through data of US12331343B2, “FAMIN assay methods” (Cambridge Enterprise Limited, priority 2018, dated 2025).

`Nc1nc2c(ncn2[C@@H]2O[C@H](CO)[C@@H](O)[C@H]2O)c(=O)[nH]1` [guanosine]: the “metabolised by FAMIN as pure substrate” value in data set [1] was “metabolised”.
`CCCCCC[C@@H]([C@@H](C)O)n1cnc2c(N)ncnc21` (racemic) [EHNA, erythro-9-(2-hydroxy-3-nonyl)adenine]: in data set [2], the “effect on adenosine deaminase activity of FAMIN (levels of inosine)” value is reported as “inhibited”. Also, the “effect on FAMIN's adenosine phosphorylase activity (levels of adenine and R-1-P from adenosine)” value in data set [3] was “intact”.
Take `C[S+](CC[C@H](N)C(=O)[O-])C[C@H]1O[C@@H](n2cnc3c(N)ncnc32)[C@H](O)[C@@H]1O` (some centres unmarked) [SAM, S-adenosylmethionine]: the “metabolised by FAMIN as pure substrate” value in data set [1] is listed as “not”.
The same measure, in the same setting: with `OC[C@H]1O[C@@H](n2cnc3c(O)ncnc32)[C@H](O)[C@@H]1O` [inosine] the entry was “metabolised”; with `CSC[C@H]1O[C@@H](n2cnc3c(N)ncnc32)[C@H](O)[C@@H]1O` [MTA, S-methyl-5′-thioadenosine], “metabolised”.
With `OC[C@H]1O[C@@H](n2cnc3c2NC=NC[C@H]3O)C[C@@H]1O` [pentostatin], in data set [3], the “effect on FAMIN's adenosine phosphorylase activity (levels of adenine and R-1-P from adenosine)” value was “intact”.
With `Nc1ncnc2c1ncn2[C@@H]1O[C@H](CO)[C@@H](O)[C@H]1O` [adenosine], the “metabolised by FAMIN as pure substrate” value in data set [1] is “consumed”.
As to `Nc1ccn([C@@H]2O[C@H](CO)[C@@H](O)[C@H]2O)c(=O)n1` [cytidine], the “metabolised by FAMIN as pure substrate” value in data set [1] is listed as “No activity”.
Same read-out and setting: the value for `Nc1ncnc2c1ncn2[C@H]1C[C@H](O)[C@@H](CO)O1` [2′-deoxy-adenosine, 2′-deoxyadenosine] was “metabolised”.
For `Nc1nc2c(nc(N)n2[C@@H]2O[C@H](CO)[C@@H](O)[C@H]2O)c(=O)[nH]1` [8-aminoguanosine], in data set [4], the “effect on FAMIN's purine nucleoside phosphorylase activity (generation of hypoxanthine and R-1-P from inosine)” value is listed as “inhibited”. Also, the “effect on FAMIN's adenosine phosphorylase activity (levels of adenine and R-1-P from adenosine)” value in data set [3] is “did not affect”.
For the molecule `C[C@H]1O[C@@H](n2cnc3c(N)ncnc32)[C@H](O)[C@@H]1O` [5′-deoxy-adenosine, 5′-deoxyadenosine], the “metabolised by FAMIN as pure substrate” value in data set [1] is given as “substrate of FAMIN”.

B1: recombinant human FAMIN (Homo sapiens) (protein)
chain: T1 sequence (Q8IV20 1-430)
notes: twin Strep-tag (followed by short linker and TEV cleavage site) (N, cleaved yes); made in house; host or cells: HEK293T
The Km is the substrate concentration at which the rate is half of its maximum. As to B1, the Michaelis constant (Km) in data set [5] was 1 µM; in data set [6], 11 µM; in data set [7], 36 µM; in data set [8] it was 41 µM.
